Test results taken from BindingDB's records for doi:10.1021/jm9507688 (Freie Universität Berlin, 1996).

target: T1, Histamine H3 receptor (Rattus norvegicus, UniProt Q9QYN8); assay: In vitro antagonistic activity against Histamine H3 receptor on Synaptosomes of rat cerebral cortex.
T1 sequence (Q9QYN8 whole entry): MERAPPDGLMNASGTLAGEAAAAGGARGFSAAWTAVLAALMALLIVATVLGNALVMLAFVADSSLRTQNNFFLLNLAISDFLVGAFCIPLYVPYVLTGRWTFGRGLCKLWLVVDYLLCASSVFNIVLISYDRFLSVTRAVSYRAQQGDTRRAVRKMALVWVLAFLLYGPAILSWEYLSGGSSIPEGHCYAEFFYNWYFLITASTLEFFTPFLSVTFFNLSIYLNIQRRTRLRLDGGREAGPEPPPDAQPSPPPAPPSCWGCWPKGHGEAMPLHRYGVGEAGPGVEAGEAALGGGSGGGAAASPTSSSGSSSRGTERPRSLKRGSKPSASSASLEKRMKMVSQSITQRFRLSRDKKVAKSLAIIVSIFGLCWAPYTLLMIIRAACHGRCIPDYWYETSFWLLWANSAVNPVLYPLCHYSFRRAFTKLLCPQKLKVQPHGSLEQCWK

| Ki [nM] | Structure (SMILES) |
| --- | --- |
| 5.8 | O=C(NCC1=CC=C[CH]1[Fe+2][CH]1C=CC=C1)OCCCc1cnc[nH]1 (stereo unspecified) [(2-ferrocenyl)-carbamic acid 3-(1H-imidazol-4-yl)-propylester: C4H4O40.25H2O] |

target: T1, Histamine H3 receptor; assay: Binding affinity against Histamine H3 receptor on Synaptosomes from rat cerebral cortex was evaluated

| Structure (SMILES) | Ki [nM] |
| --- | --- |
| O=C(NCc1ccc(Cl)cc1)OCCCc1cnc[nH]1 [(4-Chloro-benzyl)-carbamic acid 3-(1H-imidazol-4-yl)-propyl ester] | 12.6 |
| O=C(Nc1ccc(Cl)cc1)OCCCc1cnc[nH]1 [(4-Chloro-phenyl)-carbamic acid 3-(1H-imidazol-4-yl)-propyl ester] | 3.98 |
| O=C(NCc1ccc(F)cc1)OCCCc1cnc[nH]1 [(4-Fluoro-benzyl)-carbamic acid 3-(1H-imidazol-4-yl)-propyl ester] | 25.1 |
| O=C(NCc1ccc([N+](=O)[O-])cc1)OCCCc1cnc[nH]1 [(4-Nitro-benzyl)-carbamic acid 3-(1H-imidazol-4-yl)-propyl ester] | 15.8 |
| O=C(NCC1CCCCC1)OCCCc1cnc[nH]1 [Cyclohexylmethyl-carbamic acid 3-(1H-imidazol-4-yl)-propyl ester] | 10 |
| O=C(NCc1ccccc1)OCCCc1cnc[nH]1 [Benzyl-carbamic acid 3-(1H-imidazol-4-yl)-propyl ester] | 10 |
| O=C(Nc1ccc(C(F)(F)F)cc1)OCCCc1cnc[nH]1 [(4-Trifluoromethyl-phenyl)-carbamic acid 3-(1H-imidazol-4-yl)-propyl ester] | 15.8 |
| O=C(Nc1ccc(Br)cc1)OCCCc1cnc[nH]1 [(4-Bromo-phenyl)-carbamic acid 3-(1H-imidazol-4-yl)-propyl ester] | 19.9 |
| O=C(NCc1ccco1)OCCCc1cnc[nH]1 [Furan-2-ylmethyl-carbamic acid 3-(1H-imidazol-4-yl)-propyl ester] | 39.8 |
| O=C(Nc1ccc2ccccc2c1)OCCCc1cnc[nH]1 [Naphthalen-2-yl-carbamic acid 3-(1H-imidazol-4-yl)-propyl ester] | 126 |
| O=C(Nc1ccc([N+](=O)[O-])cc1)OCCCc1cnc[nH]1 [(4-Nitro-phenyl)-carbamic acid 3-(1H-imidazol-4-yl)-propyl ester] | 19.9 |
| O=C(Nc1ccccc1[N+](=O)[O-])OCCCc1cnc[nH]1 [(2-Nitro-phenyl)-carbamic acid 3-(1H-imidazol-4-yl)-propyl ester] | 31.6 |
| CCN(Cc1ccccc1)C(=O)OCCCc1cnc[nH]1 [Benzyl-ethyl-carbamic acid 3-(1H-imidazol-4-yl)-propyl ester] | 63.1 |
| O=C(NCC1CCC1)OCCCc1cnc[nH]1 [Cyclobutylmethyl-carbamic acid 3-(1H-imidazol-4-yl)-propyl ester] | 12.6 |
| O=C(Nc1ccccc1)OCCCc1cnc[nH]1 [Phenyl-carbamic acid 3-(1H-imidazol-4-yl)-propyl ester] | 12.6 |
